# Measurements reported in US12247011B2, “Selective inhibitors of NLRP3 inflammasome” (NodThera Limited, priority 2017, dated 2025).
# Counter-ions that a name gives are not always drawn.
# System: IL-1β release upon NLRP3 activation in peripheral blood mononuclear cells (PBMC)
# Assay: PBMC IC50 Determination Assay
# Assay type: cell-based
# Conditions: Homo sapiens, PBMC, read-out: PBMC IC50
# Experimental: PBMC IC50 Determination Assay
# The compounds of the present disclosure were tested for their inhibitory activity against IL-1β release upon NLRP3 activation in peripheral blood mononuclear cells (PBMC).
# Isolated cells were seeded into the wells of a 96-well plate and incubated for 3 h with lipopolysaccharide (LPS). Following medium exchange, the compounds of the present disclosure were added (a single compound per well) and the cells were incubated for 30 min. Next, the cells were stimulated either with ATP (5 mM) or nigericin (10 μM) for 1 h and the cell culture media from the wells were collected for further analysis.
# The release of IL-1β into the media was determined by a quantitative detection of IL-1β in the media using an IL-1β enzyme-linked immunosorbent assay (ELISA) Ready-SET-Go!, eBioscience cat. […] Subsequently, plates were blocked with blocking buffer for 1 h at room temperature (rt) and after washing with a buffer (PBS with 0.05% Tween-20) incubated with protein standard and culture media. […] Plates were washed and incubated with HRP-streptavidin for 30 min at rt and washed again. The signal was developed after addition of 3,3,5,5-tetramethylbenzidine-peroxidase (TMB) until colour appeared and the reaction was stopped by 2 M H2SO4. A microplate spectrophotometer (BioTek) was used to detect signals with 450 nm. The detection range of IL-1β ELISA was 2-150 ng/ml.
row,SMILES,IC50 [nM]
1,"CN(C)Cc1cnn(C[C@@H](OC(=O)Nc2c3c(cc4c2CCC4)CCC3)C(=O)O)c1 [Compound 98, (2R)-3-{4-[(dimethylamino)methyl]-1H-pyrazol-1-yl}-2-{[(1,2,3,5,6,7-hexahydro-s-indacen-4-yl)carbamoyl]oxy}propanoic acid hydrochloride]",1000 to 10000

# Same assay, conditions: Homo sapiens; LPS-primed PBMC, 30 min compound, stimulated with ATP (5 mM) or nigericin (10 μM) for 1 h; IL-1β ELISA; read-out: PBMC IC50
row,SMILES,IC50 [nM]
1,"Cc1cnc(CC(OC(=O)Nc2c3c(cc4c2CCC4)CCC3)C(=O)OC(C)C)cn1 (stereo not drawn) [Compound 121, Propan-2-yl 2-{[(1,2,3,5,6,7-hexahydro-s-indacen-4-yl)carbamoyl]oxy}-3-(5-methylpyrazin-2-yl)propanoate]",10 to 100
2,"CCOC(=O)C(Cn1cccn1)OC(=O)Nc1ccccc1 (stereo not drawn) [Compound 45, Ethyl 2-[(phenylcarbamoyl)oxy]-3-(1H-pyrazol-1-yl)propanoate]",> 10000
3,"CCOC(=O)C(Cn1ccnc1)OC(=O)Nc1c2c(cc3c1CCC3)CCC2 (stereo not drawn) [Compound 33, Ethyl 2-{[(1,2,3,5,6,7-hexahydro-s-indacen-4-yl)carbamoyl]oxy}-3-(1H-imidazol-1-yl)propanoate]",100 to 1000
4,"CCOC(=O)C(Cn1cccn1)OC(=O)NC1CCCCC1C (stereo not drawn) [Compound 87, Ethyl 2-{[(2-methylcyclohexyl)carbamoyl]oxy}-3-(1H-pyrazol-1-yl)propanoate]",1000 to 10000
5,"CCOC(=O)COC(=O)Nc1c(C)cccc1CC [Compound 16, Ethyl 2-(((2-ethyl-6-methylphenyl)carbamoyl)oxy)acetate]",100 to 1000
6,"CCOC(=O)C(Cn1cccn1)OC(=O)Nc1c(F)cccc1CC (stereo not drawn) [Compound 66, Ethyl 2-{[(2-ethyl-6-fluorophenyl)carbamoyl]oxy}-3-(1H-pyrazol-1-yl)propanoate]",100 to 1000
7,"CC(C)OC(=O)C(Cc1ncc(C#N)cn1)OC(=O)Nc1c2c(cc3c1CCC3)CCC2 (stereo not drawn) [Compound 130, Propan-2-yl 3-(5-cyanopyrimidin-2-yl)-2-{[(1,2,3,5,6,7-hexahydro-s-indacen-4-yl)carbamoyl]oxy}propanoate]",10 to 100
8,CCCOC(=O)COC(=O)Nc1c2c(cc3c1CCC3)CCC2 [Compound 21],100 to 1000
9,"CCOC(=O)C(Cn1cccn1)OC(=O)NC1CCCCCC1 (stereo not drawn) [Compound 56, Ethyl 2-[(cycloheptylcarbamoyl)oxy]-3-(1H-pyrazol-1-yl)propanoate]",> 10000
10,"CCOC(=O)C(Cn1cccn1)OC(=O)Nc1c2c(cc3c1OCC3)OCC2 (stereo not drawn) [Compound 100, Ethyl 2-[({4,10-dioxatricyclo[7.3.0.0^3,7]dodeca-1,3(7),8-trien-2-yl}carbamoyl)oxy]-3-(1H-pyrazol-1-yl)propanoate]",1000 to 10000
11,"CCOC(=O)C(Cn1cccn1)OC(=O)Nc1c(C)cccc1Cl (stereo not drawn) [Compound 51, Ethyl 2-{[(2-chloro-6-methylphenyl)carbamoyl]oxy}-3-(1H-pyrazol-1-yl)propanoate]",1000 to 10000
12,"O=C(COC(=O)Nc1c2c(cc3c1CCC3)CCC2)OC1CCC1 [Compound 23, Cyclobutyl 2-{[(1,2,3,5,6,7-hexahydro-s-indacen-4-yl)carbamoyl]oxy}acetate]",100 to 1000
13,"CC(C)COC(=O)COC(=O)Nc1c2c(cc3c1CCC3)CCC2 [Compound 24, 2-methylpropyl 2-{[(1,2,3,5,6,7-hexahydro-s-indacen-4-yl)carbamoyl]oxy}acetate]",100 to 1000
14,"CCOC(=O)C(Cn1cccn1)OC(=O)Nc1c(C#N)cccc1CC (stereo not drawn) [Compound 58, Ethyl 2-{[(2-cyano-6-ethylphenyl)carbamoyl]oxy}-3-(1H-pyrazol-1-yl)propanoate]",1000 to 10000
15,"CC(C)OC(=O)C(Cc1ncccn1)OC(=O)Nc1c(Cl)cccc1Cl (stereo not drawn) [Compound 125, Propan-2-yl 2-{[(2,6-dichlorophenyl)carbamoyl]oxy}-3-(pyrimidin-2-yl)propanoate]",1000 to 10000
16,"O=C(Nc1c2c(cc3c1CCC3)CCC2)O[C@H](Cn1ccnc1)C(=O)O [Compound 79, (2R)-2-{[(1,2,3,5,6,7-hexahydro-s-indacen-4-yl)carbamoyl]oxy}-3-(1H-imidazol-1-yl)propanoic acid]",1000 to 10000
17,"CC(C)OC(=O)COC(=O)Nc1c2c(cc3c1CCC3)CCC2 [Compound 20, Propan-2-yl 2-{[(1,2,3,5,6,7-hexahydro-s-indacen-4-yl)carbamoyl]oxy}acetate]",100 to 1000
18,"CCOC(=O)COC(=O)Nc1ccccc1C#N [Compound 11, Ethyl 2-{[(2-cyanophenyl)carbamoyl]oxy}acetate]",1000 to 10000
19,"O=C(Nc1c2c(cc3c1CCC3)CCC2)O[C@H](Cn1cccn1)C(=O)O [Compound 61, (2R)-2-{[(1,2,3,5,6,7-hexahydro-s-indacen-4-yl)carbamoyl]oxy}-3-(1H-pyrazol-1-yl)propanoic acid]",100 to 1000

row,SMILES,IC50 [nM]
1,"CCOC(=O)C(Cn1cccn1)OC(=O)Nc1c(CC)cccc1CC (stereo not drawn) [Compound 48, Ethyl 2-{[(2,6-diethylphenyl)carbamoyl]oxy}-3-(1H-pyrazol-1-yl)propanoate]",100 to 1000
2,"CC(C)OC(=O)C(Cc1cnc(C#N)cn1)OC(=O)Nc1c2c(cc3c1CCC3)CCC2 (stereo not drawn) [Compound 119, Propan-2-yl 3-(5-cyanopyrazin-2-yl)-2-{[(1,2,3,5,6,7-hexahydro-s-indacen-4-yl)carbamoyl]oxy}propanoate]",< 10
3,"CC(C)OC(=O)C(Cc1ncccn1)OC(=O)N[C@H]1CCCC[C@@H]1C (relative stereo) [Compound 129, Propan-2-yl 2-{[(trans-2-methylcyclohexyl)carbamoyl]oxy}-3-(pyrimidin-2-yl)propanoate]",1000 to 10000
4,"CCOC(=O)C(Cn1cccn1)OC(=O)NC1CCCC1 (stereo not drawn) [Compound 54, Ethyl 2-[(cyclopentylcarbamoyl)oxy]-3-(1H-pyrazol-1-yl)propanoate]",1000 to 10000
5,"CCOC(=O)[C@@H](COC1CCOCC1)OC(=O)Nc1c2c(cc3c1CCC3)CCC2 [Compound 102, Ethyl (2R)-2-{[(1,2,3,5,6,7-hexahydro-s-indacen-4-yl)carbamoyl]oxy}-3-(oxan-4-yloxy)propanoate]",100 to 1000
6,"COC(=O)COC(=O)Nc1c2c(cc3c1CCC3)CCC2 [Compound 29, Methyl 2-{[(1,2,3,5,6,7-hexahydro-s-indacen-4-yl)carbamoyl]oxy}acetate]",1000 to 10000
7,"CCOC(=O)C(COC)OC(=O)Nc1c2c(cc3c1CCC3)CCC2 (stereo not drawn) [Compound 6, Ethyl 2-{[(1,2,3,5,6,7-hexahydro-s-indacen-4-yl)carbamoyl]oxy}-3-methoxypropanoate]",10 to 100
8,"CCOC(=O)[C@@H](C)OC(=O)Nc1c2c(cc3c1CCC3)CCC2 [Compound 19, Ethyl (2R)-2-{[(1,2,3,5,6,7-hexahydro-s-indacen-4-yl)carbamoyl]oxy}propanoate]",1000 to 10000
9,"CCOC(=O)COC(=O)Nc1c(Cl)cccc1Cl [Compound 3, Ethyl 2-{[(2,6-dichlorophenyl)carbamoyl]oxy}acetate]",100 to 1000
10,"O=C(Nc1c2c(cc3c1CCC3)CCC2)O[C@H](Cn1cncn1)C(=O)O [Compound 114, (2R)-2-{[(1,2,3,5,6,7-hexahydro-s-indacen-4-yl)carbamoyl]oxy}-3-(1H-1,2,4-triazol-1-yl)propanoic acid]",100 to 1000
11,"CCOC[C@@H](OC(=O)Nc1c2c(cc3c1CCC3)CCC2)C(=O)OCC [Compound 95, Ethyl (2R)-3-ethoxy-2-{[(1,2,3,5,6,7-hexahydro-s-indacen-4-yl)carbamoyl]oxy}propanoate]",100 to 1000
12,"CCOC(=O)C(Cn1cccn1)OC(=O)Nc1c(C)cccc1C(C)C (stereo not drawn) [Compound 74, Ethyl 2-({[2-methyl-6-(propan-2-yl)phenyl]carbamoyl}oxy)-3-(1H-pyrazol-1-yl)propanoate]",100 to 1000
13,CCOC(=O)C(Cn1cccn1)OC(=O)Nc1c(F)cccc1F (stereo not drawn) [Compound 44],100 to 1000
14,"CCOC(=O)[C@@H](Cn1ncnc1C)OC(=O)Nc1c2c(cc3c1CCC3)CCC2 [Compound 103, Ethyl (2R)-2-{[(1,2,3,5,6,7-hexahydro-s-indacen-4-yl)carbamoyl]oxy}-3-(5-methyl-1H-1,2,4-triazol-1-yl)propanoate]",10 to 100
15,"CCOC(=O)[C@@H](COC)OC(=O)Nc1c2c(cc3c1CCC3)CCC2 [Compound 68, Ethyl (2R)-2-{[(1,2,3,5,6,7-hexahydro-indacen-4-yl)carbamoyl]oxy}-3-methoxypropanoate]",1000 to 10000
16,"CCOC(=O)C(Cn1cccn1)OC(=O)Nc1c(C)cccc1F (stereo not drawn) [Compound 49, Ethyl 2-{[(2-fluoro-6-methylphenyl)carbamoyl]oxy}-3-(1H-pyrazol-1-yl)propanoate]",100 to 1000
17,"CCOC(=O)C(Cn1cccn1)OC(=O)Nc1c(C)cccc1C#N (stereo not drawn) [Compound 57, Ethyl 2-{[(2-cyano-6-methylphenyl)carbamoyl]oxy}-3-(1H-pyrazol-1-yl)propanoate]",> 10000
18,"CCOC(=O)[C@@H](Cc1cccc(-n2cccn2)c1)OC(=O)Nc1c2c(cc3c1CCC3)CCC2 [Compound 43, Ethyl (2R)-2-{[(1,2,3,5,6,7-hexahydro-s-indacen-4-yl)carbamoyl]oxy}-3-[3-(1H-pyrazol-1-yl)phenyl]propanoate]",100 to 1000
19,"CCOC(=O)C(Cn1ccc(C)n1)OC(=O)Nc1c2c(cc3c1CCC3)CCC2 (stereo not drawn) [Compound 72, Ethyl 2-{[(1,2,3,5,6,7-hexahydro-s-indacen-4-yl)carbamoyl]oxy}-3-(3-methyl-1H-pyrazol-1-yl)propanoate]",10 to 100
